Data taken from US8263598B2, “Substituted sulfonamide compounds” (Gruenenthal GmbH, priority 2008, dated 2012).

Key:
[1] = target: T1, human B1R receptor (hB1R) (Homo sapiens, UniProt P46663); assay: FLIPR Ca2+ assay on human bradykinin 1 receptor (CHO K1 hB1R cells); assay type: cell-based; settings: test substance 10 μM; CHO K1 cells with human B1R gene; agonist Lys-Des-Arg9-bradykinin 0.5 nM; compared to maximum achievable inhibition
T1 construct: host or cells: CHO K1 cells
T1 sequence (P46663 1-353): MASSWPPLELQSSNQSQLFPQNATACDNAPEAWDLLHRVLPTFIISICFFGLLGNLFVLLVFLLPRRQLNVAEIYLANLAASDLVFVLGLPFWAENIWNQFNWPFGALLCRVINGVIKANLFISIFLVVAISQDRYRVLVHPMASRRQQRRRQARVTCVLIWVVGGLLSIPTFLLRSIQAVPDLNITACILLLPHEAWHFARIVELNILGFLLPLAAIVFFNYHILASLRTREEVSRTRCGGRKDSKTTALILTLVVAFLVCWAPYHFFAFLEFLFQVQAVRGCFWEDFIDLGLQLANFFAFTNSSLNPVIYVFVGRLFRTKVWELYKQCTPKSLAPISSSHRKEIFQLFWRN
Procedure, shortened: (§1)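 Values are percent inhibition of agonist-evoked Ca²⁺ influx, measured by Fluo-4 fluorescence peak in FLIPR relative to maximum achievable inhibition. Compound at 10 μM was preincubated 10 min on B1R-transfected CHO K1 cells before challenge with 0.5 nM Lys-Des-Arg9-bradykinin (human) or 100 nM Des-Arg9-bradykinin (rat).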

[2] = target: T2, B1R receptor of rats (rB1R) (Rattus norvegicus, UniProt P97583); assay: FLIPR Ca2+ assay on rat bradykinin 1 receptor (CHO K1 rB1R cells); assay type: cell-based; settings: test substance 10 μM; CHO K1 cells with B1R gene of rats; agonist Des-Arg9-bradykinin 100 nM; compared to maximum achievable inhibition
T2 construct: host or cells: CHO K1 cells
T2 sequence (P97583 1-337): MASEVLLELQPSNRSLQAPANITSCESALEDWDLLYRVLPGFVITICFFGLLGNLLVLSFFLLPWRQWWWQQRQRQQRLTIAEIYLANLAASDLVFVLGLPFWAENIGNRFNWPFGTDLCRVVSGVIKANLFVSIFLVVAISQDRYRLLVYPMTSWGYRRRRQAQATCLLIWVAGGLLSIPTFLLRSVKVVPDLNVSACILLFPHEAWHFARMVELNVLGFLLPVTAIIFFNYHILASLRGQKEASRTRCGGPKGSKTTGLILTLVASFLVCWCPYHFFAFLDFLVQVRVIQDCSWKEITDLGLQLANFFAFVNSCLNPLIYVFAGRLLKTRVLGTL
Procedure, shortened: as §1

COc1cc(C)c(S(=O)(=O)N(C)CCOCC(=O)N2CCn3ccnc3C2)c(C)c1 [Example 56, N-(2-(2-(5,6-dihydroimidazo[1,2-a]pyrazin-7(8H)-yl)-2-oxoethoxy)ethyl)-4-methoxy-N,2,6-trimethylbenzenesulfonamide]
inhibition at 10 µM [1]: 85%
inhibition at 10 µM [2]: 97%

O=C(CC(NS(=O)(=O)c1ccc2ccccc2c1)c1ccccc1)N1CCn2c(Cc3ccncc3)ccc2C1 (centres unmarked) [Example 169, N-(3-Oxo-1-phenyl-3-(6-(pyridin-4-ylmethyl)-3,4-dihydropyrrolo[1,2-a]pyrazin-2(1H)-yl)propyl)naphthalene-2-sulfonamide]
inhibition at 10 µM [1]: 78%
inhibition at 10 µM [2]: 98%

COc1cc(C)c(S(=O)(=O)N(C)CCOCC(=O)N2CCn3cccc3C2c2cccnc2)c(C)c1C (centres unmarked) [Example 81, 4-methoxy-N,2,3,6-tetramethyl-N-(2-(2-oxo-2-(1-(pyridin-3-yl)-3,4-dihydropyrrolo[1,2-a]pyrazin-2(1H)-yl)ethoxy)ethyl)benzenesulfonamide]
inhibition at 10 µM [1]: 98%
inhibition at 10 µM [2]: 99%

COc1cc(C)c(S(=O)(=O)N(CCOCC(=O)N2CCn3cccc3C2c2ccccc2)CC(C)C)c(C)c1C (centres unmarked) [Example 23, N-isobutyl-4-methoxy-2,3,6-trimethyl-N-(2-(2-oxo-2-(1-phenyl-3,4-dihydropyrrolo[1,2-a]pyrazin-2(1H)-yl)ethoxy)ethyl)benzenesulfonamide]
inhibition at 10 µM [1]: 47%
inhibition at 10 µM [2]: 97%

COc1cc(C)c(S(=O)(=O)N(CCOCC(=O)N2CCn3cccc3C2C)Cc2ccccc2)c(C)c1 (centres unmarked) [Example 45, N-benzyl-4-methoxy-2,6-dimethyl-N-(2-(2-(1-methyl-3,4-dihydropyrrolo[1,2-a]pyrazin-2(1H)-yl)-2-oxoethoxy)ethyl)benzenesulfonamide]
inhibition at 10 µM [1]: 83%
inhibition at 10 µM [2]: 99%

COc1c(C)cc(S(=O)(=O)N(C)CCOCC(=O)N2CCn3cccc3C2c2ccc(Cl)nc2)c(C)c1C (centres unmarked) [Example 30, N-(2-(2-(1-(6-chloropyridin-3-yl)-3,4-dihydropyrrolo[1,2-a]pyrazin-2(1H)-yl)-2-oxoethoxy)ethyl)-4-methoxy-N,2,3,5-tetramethylbenzenesulfonamide]
inhibition at 10 µM [1]: 98%
inhibition at 10 µM [2]: 76%

COc1cc(C)c(S(=O)(=O)N(C)CCOCC(=O)N2CCn3cccc3C2c2ccc(Cl)nc2)c(C)c1C (centres unmarked) [Example 82, N-(2-(2-(1-(6-chloropyridin-3-yl)-3,4-dihydropyrrolo[1,2-a]pyrazin-2(1H)-yl)-2-oxoethoxy)ethyl)-4-methoxy-N,2,3,6-tetramethylbenzenesulfonamide]
inhibition at 10 µM [1]: 101%
inhibition at 10 µM [2]: 99%

CCCC1c2cccn2CCN1C(=O)COCCN(C)S(=O)(=O)c1c(C)cc(OC)cc1C (centres unmarked) [Example 136, 4-methoxy-N,2,6-trimethyl-N-(2-(2-oxo-2-(1-propyl-3,4-dihydropyrrolo[1,2-a]-pyrazin-2(1H)-yl)ethoxy)ethyl)benzenesulfonamide]
inhibition at 10 µM [1]: 104%
inhibition at 10 µM [2]: 103%

COc1cc(C)c(S(=O)(=O)N(CCOCC(=O)N2CCn3c(CN(C)C)ccc3C2c2cccs2)Cc2ccccc2)c(C)c1C (centres unmarked) [Example 121, N-benzyl-N-(2-(2-(6-((dimethylamino)methyl)-1-(thiophen-2-yl)-3,4-dihydropyrrolo[1,2-a]pyrazin-2(1H)-yl)-2-oxoethoxy)ethyl)-4-methoxy-2,3,6-trimethylbenzene-sulfonamide]
inhibition at 10 µM [1]: 101%
inhibition at 10 µM [2]: 102%

COc1cc(C)c(S(=O)(=O)N(CCOCC(=O)N2CCn3cccc3C2C(C)(C)C)Cc2ccccc2)c(C)c1 (centres unmarked) [Example 44, N-benzyl-N-(2-(2-(1-tert-butyl-3,4-dihydropyrrolo[1,2-a]pyrazin-2(1H)-yl)-2-oxoethoxy)ethyl)-4-methoxy-2,6-dimethylbenzenesulfonamide]
inhibition at 10 µM [1]: 88%
inhibition at 10 µM [2]: 98%

COc1ccc(C2c3cccn3CCN2C(=O)COCCN(C)S(=O)(=O)c2c(C)cc(C)cc2C)cc1 (centres unmarked) [Example 69, N-(2-(2-(1-(4-methoxyphenyl)-3,4-dihydropyrrolo[1,2-a]pyrazin-2(1H)-yl)-2-oxoethoxy)ethyl)-N,2,4,6-tetramethylbenzenesulfonamide]
inhibition at 10 µM [1]: 101%
inhibition at 10 µM [2]: 100%

COc1cc(C)c(S(=O)(=O)N(C)CCOCC(=O)N2CCn3c(nc(CN4CCCCC4)c3Cl)C2)c(C)c1 [Example 6, N-(2-(2-(3-chloro-2-(piperidin-1-ylmethyl)-5,6-dihydroimidazo[1,2-a]pyrazin-7(8H)-yl)-2-oxoethoxy)ethyl)-4-methoxy-N,2,6-trimethylbenzenesulfonamide]
inhibition at 10 µM [1]: 100%
inhibition at 10 µM [2]: 99%

N-benzyl-N-(2-(2-(6-((dimethylamino)methyl)-1-ethyl-3,4-dihydropyrrolo[1,2-a]pyrazin-2(1H)-yl)-2-oxoethyl)ethyl)-4-methoxy-2,3,6-trimethylbenzenesulfonamide [Example 122]
hB1R [10 μM] % Inhibition [1]: 101%
rB1R [10 μM] % Inhibition [2]: 101%

COc1cc(C)c(S(=O)(=O)N(C)CCOCC(=O)N2CCn3c(CN(C)C)ccc3C2c2ccccc2)c(C)c1C (centres unmarked) [Example 1, N-(2-(2-(6-((dimethylamino)methyl)-1-phenyl-3,4-dihydropyrrolo[1,2-a]pyrazin-2(1H)-yl)-2-oxoethoxy)ethyl)-4-methoxy-N,2,3,6-tetramethylbenzene-sulfonamide]
inhibition at 10 µM [1]: 89%
inhibition at 10 µM [2]: 58%

COc1c(C)cc(S(=O)(=O)N(C)CCOCC(=O)N2CCn3c(CN(C)C)ccc3C2Cc2ccccc2)c(C)c1C (centres unmarked) [Example 109, N-(2-(2-(1-benzyl-6-((dimethylamino)methyl)-3,4-dihydropyrrolo[1,2-a]pyrazin-2(1H)-yl)-2-oxoethoxy)ethyl)-4-methoxy-N,2,3,5-tetramethylbenzene-sulfonamide]
inhibition at 10 µM [1]: 102%
inhibition at 10 µM [2]: 101%

COc1cc(C)c(S(=O)(=O)N(CCOCC(=O)N2CCn3cccc3C2c2ccc(Cl)nc2)CC(C)C)c(C)c1C (centres unmarked) [Example 20, N-(2-(2-(1-(6-chloropyridin-3-yl)-3,4-dihydropyrrolo[1,2-a]pyrazin-2(1H)-yl)-2-oxoethoxy)ethyl)-N-isobutyl-4-methoxy-2,3,6-trimethylbenzenesulfonamide]
inhibition at 10 µM [1]: 84%
inhibition at 10 µM [2]: 98%

COc1cccc(C2c3cccn3CCN2C(=O)COCCN(C)S(=O)(=O)c2c(C)cc(OC)cc2C)c1 (centres unmarked) [Example 62, 4-methoxy-N-(2-(2-(1-(3-methoxyphenyl)-3,4-dihydropyrrolo[1,2-a]pyrazin-2(1H)-yl)-2-oxoethoxy)ethyl)-N,2,6-trimethylbenzenesulfonamide]
inhibition at 10 µM [1]: 101%
inhibition at 10 µM [2]: 98%

COc1cc(C)c(S(=O)(=O)N(C)CCOCC(=O)N2CCn3cccc3C2C(C)(C)C)c(C)c1 (centres unmarked) [Example 52, N-(2-(2-(1-tert-butyl-3,4-dihydropyrrolo[1,2-a]pyrazin-2(1H)-yl)-2-oxoethoxy)ethyl)-4-methoxy-N,2,6-trimethylbenzenesulfonamide]
inhibition at 10 µM [1]: 100%
inhibition at 10 µM [2]: 98%

COc1cc(C)c(S(=O)(=O)N(C)CCOCC(=O)N2CCn3c(CN4CCN(C)CC4)ccc3C2)c(C)c1 [Example 9, 4-methoxy-N,2,6-trimethyl-N-(2-(2-(6-((4-methylpiperazin-1-yl)methyl)-3,4-dihydropyrrolo[1,2-a]pyrazin-2(1H)-yl)-2-oxoethoxy)ethyl)benzenesulfonamide]
inhibition at 10 µM [1]: 101%
inhibition at 10 µM [2]: 102%

COc1c(C)cc(S(=O)(=O)N(C)CCOCC(=O)N2CCn3cccc3C2c2cccs2)c(C)c1C (centres unmarked) [Example 36, 4-methoxy-N,2,3,5-tetramethyl-N-(2-(2-oxo-2-(1-(thiophen-2-yl)-3,4-dihydropyrrolo[1,2-a]pyrazin-2(1H)-yl)ethoxy)ethyl)benzenesulfonamide]
inhibition at 10 µM [1]: 97%
inhibition at 10 µM [2]: 85%

Cc1cc(C)c(S(=O)(=O)N(C)CCOCC(=O)N2CCn3c(CN4CCCC4)ccc3C2c2ccccc2)c(C)c1 (centres unmarked) [Example 140, N,2,4,6-tetramethyl-N-(2-(2-oxo-2-(1-phenyl-6-(pyrrolidin-1-ylmethyl)-3,4-dihydropyrrolo[1,2-a]pyrazin-2(1H)-yl)ethoxy)ethyl)benzenesulfonamide]
inhibition at 10 µM [1]: 102%
inhibition at 10 µM [2]: 101%

COc1cc(C)c(S(=O)(=O)N(CCOCC(=O)N2CCn3c(CN(C)C)ccc3C2Cc2ccccc2)Cc2ccccc2)c(C)c1 (centres unmarked) [Example 129, N-benzyl-N-(2-(2-(1-benzyl-6-((dimethylamino)methyl)-3,4-dihydropyrrolo[1,2-a]pyrazin-2-(1H)-yl)-2-oxoethoxy)ethyl)-4-methoxy-2,6-dimethylbenzene-sulfonamide]
hB1R [10 μM] % Inhibition [1]: 100%
rB1R [10 μM] % Inhibition [2]: 101%
